≈ marks a conversion by molar mass, not a printed value. Where two headings read alike, the source gives them in different places.
Assays:
Cytotoxicity assay (LDH) = conditions: human
Procedure: Cytotoxicity of the compounds was determined using an LDH assay kit (Roche Diagnostics, Mannheim, Germany) as described previously. Human monocytic leukemia THP-1 cells (European Collection of Cell Cultures, Salisbury, UK) were exposed for 24 h at 37 °C to various compound concentrations ranging from 0.37 to 30 μM in RPMI 1640 medium. For LDH assays, cells were seeded into 96-well plates (5×10^4 cells/well in 100 μL culture medium) in triplicate in serum-free RPMI 1640 medium and measurements were taken 24 h after the treatment with the compounds. The maximum concentration of DMSO (Sigma) in the assays never exceeded 0.1 %. […] The median lethal dose values, LC50, were deduced through the production of a dose-response curve. All data from three independent experiments were evaluated using GraphPad Prism 5.00 software (GraphPadSoftware, San Diego, CA, USA).

[1] = Lipophilicity determination by RP-HPLC (log k, log D); format: physicochemical; conditions: for log D6.5: RP-HPLC C18, MeOH 72 % / acetate-buffered saline pH 6.5; for log D7.4: RP-HPLC C18, MeOH 72 % / acetate-buffered saline pH 7.4; for log k (logarithm of the capacity factor): RP-HPLC C18, MeOH 72 % / water 28 %
Excerpt: An HPLC system Agilent 1200 equipped with a DAD detector (Agilent, Santa Clara, CA, USA) was used. A chromatographic column Symmetry® C18 5 μm, 4.6×250 mm, part No. WAT054275 (Waters Corp., Milford, MA, USA) was used. The HPLC separation process was monitored and evaluated with EZChrom Elite software ver. 3.3.2 (Agilent). Isocratic elution by a mixture of MeOH p.a. (72 %) and H2O-HPLC Mili-Q grade (28 %) as a mobile phase was used for the determination of capacity factor k. Isocratic elution by a mixture of MeOH p.a. (72 %) and acetate-buffered saline (pH 7.4 and pH 6.5) (28 %) as a mobile phase was used for the determination of distribution coefficients expressed as D7.4 and D6.5. The total flow of the column was 1.0 mL min^-1, the injection volume was 20 μL, the column temperature was 40 °C, and the sample temperature was 10 °C. The detection wavelength of 210 nm was chosen. A KI methanolic solution was used to determine the dead times (tD). Retention times (tR) were measured in minutes. The capacity factors k were calculated according to the formula k = (tR–tD)/tD, where tR is the retention time of the solute, and tD is the dead time obtained using an unretained analyte. The distribution coefficients DpH were calculated according to the formula DpH = (tR–tD)/tD. Each experiment was repeated three times.
The capacity factor and distribution coefficients were measured by RP-HPLC on a C18 column with methanol as an organic modifier of the mobile phase. In addition to the experimental lipophilicities, predicted log P values were also calculated using ACD/Percepta, see Table 1. […] The values of σ(Ar) are found in a wide range from 0.01 to 1.36, so the compounds contain substituents with both electron-donating and slightly electron-withdrawing properties.

S. aureus ATCC 29213 = assay: Antibacterial screening, broth microdilution MIC; format: cell-based; conditions: Staphylococcus aureus, ATCC29213; ATCC 29213, 24 h at 37 °C; read-out: MIC S. aureus
MRSA 63718 = assay: Antibacterial screening, broth microdilution MIC; format: cell-based, methicillin-resistant S. aureus; conditions: Staphylococcus aureus, read-out: MIC MRSA 63718
MRSA SA 630 = assay: Antibacterial screening, broth microdilution MIC; format: cell-based, methicillin-resistant S. aureus; conditions: Staphylococcus aureus, read-out: MIC MRSA SA 630
MRSA SA 3202 = assay: Antibacterial screening, broth microdilution MIC; format: cell-based, methicillin-resistant S. aureus; conditions: Staphylococcus aureus, clinical isolate, 24 h at 37 °C, read-out: MIC MRSA SA 3202
[2] = tested on: Enterococcus faecalis ATCC 29212; assay: Antibacterial screening, broth microdilution MIC; format: cell-based; conditions: read-out: MIC E. faecalis
VRE 342B = assay: Antibacterial screening, broth microdilution MIC; format: cell-based, vancomycin-resistant E. faecalis; conditions: Enterococcus, vanA isolate, 24 h at 37 °C, read-out: MIC VRE 342B
VRE 725B = assay: Antibacterial screening, broth microdilution MIC; format: cell-based, vancomycin-resistant E. faecalis; conditions: Enterococcus, vanA isolate, 24 h at 37 °C, read-out: MIC VRE 725B
VRE 368 = assay: Antibacterial screening, broth microdilution MIC; format: cell-based, vancomycin-resistant E. faecalis; conditions: Enterococcus, read-out: MIC VRE 368
E. coli ATCC 25922 = assay: Antibacterial screening, broth microdilution MIC; format: cell-based; conditions: Escherichia coli, ATCC25922; ATCC 25922, 24 h at 37 °C
[3] = tested on: Mycobacterium tuberculosis ATCC 25177/H37Ra; assay: Antimycobacterial screening, broth dilution MIC (Alamar blue); format: cell-based; conditions: 336 h, H37Ra, 14 days at 37 °C, Alamar blue, read-out: MIC M. tuberculosis
Procedure: The evaluation of in vitro antimycobacterial activity of the compounds was performed against Mycobacterium tuberculosis ATCC 25177/H37Ra, Mycobacterium kansasii DSM 44162 and Mycobacterium smegmatis ATCC 700084.
The broth dilution micro-method in Middlebrook 7H9 medium (Difco, Lawrence, KS, USA) supplemented with ADC Enrichment (Difco) was used to determine the minimum inhibitory concentration (MIC) as previously described. […] The final concentrations of the evaluated compounds, ranging from 256 to 0.125 μg mL^-1, were obtained by twofold serial dilution of the stock solution in a microtiter plate with a sterile medium. Bacterial inocula were prepared by transferring colonies from culture to sterile water. The plate was inoculated by tested microorganisms. The final concentration of bacterial cells was 1.5×10^6 for M. tuberculosis and 10^5 cells in a microtiter plate for other mycobacteria. Isoniazid and rifampicin (Sigma) were used as reference antimycobacterial drugs. Drug-free controls, sterility controls, and controls consisting of medium and DMSO alone were included. The plates were incubated for a defined time at an appropriate temperature (3 days at 37 °C for M. smegmatis, and 14 days at 37 °C for M. tuberculosis and M. kansasii). […] The MICs against M. tuberculosis were evaluated by Alamar blue (Oxoid). After incubation, 10 % of Alamar blue was added to each well, and the plate was incubated for 24 h. The MIC values were assessed as the lowest concentration of the tested compounds, which prevented changing blue resazurin to pink resorufin. The experiments were repeated three times. The minimum inhibitory concentrations (MICs) were defined as the lowest concentration of the compound at which no visible bacterial growth was observed. The MIC value is routinely and widely used in bacterial assays and is a standard detection limit according to the CLSI [60].

[4] = tested on: Mycobacterium kansasii DSM 44162; assay: Antimycobacterial screening, broth dilution MIC; format: cell-based; conditions: DSM44162, 336 h, read-out: MIC M. kansasii
[5] = tested on: Mycobacterium smegmatis ATCC 700084; assay: Antimycobacterial screening, broth dilution MIC; format: cell-based; conditions: Mycolicibacterium smegmatis, ATCC700084, 72 h, read-out: MIC M. smegmatis
[6] = ATCC29212, ATCC 29212, 24 h at 37 °C
[7] = clinical isolate, 24 h at 37 °C

In the case of `CC[C@@]1(O)C(=O)OCc2c1cc1n(c2=O)Cc2cc3ccccc3nc2-1` [CMP, camptothecin, reference compound], the CC50 at 24 h (Cytotoxicity assay (LDH)) is reported as 0.16 ± 0.07 µM.

For `COc1cc(NC(=O)c2c(O)ccc3ccccc23)cc(OC)c1` [Compound 6, N-(3,5-Dimethoxyphenyl)-2-hydroxynaphthalene-1-carboxamide], the “log D6.5” value [1] was 0.0411, the “log D7.4” value [1] was 0.0490 and the “log k (logarithm of the capacity factor)” value [1] was 0.0388. The MIC (S. aureus ATCC 29213) was 198 µM (≈ 64 µg/mL), the MIC (MRSA 63718; 24 h) was 396 µM (≈ 128 µg/mL) and the MIC (MRSA SA 630; 24 h) was 396 µM (≈ 128 µg/mL). The MIC (MRSA SA 3202) was 198 µM (≈ 64 µg/mL), the MIC [2, 6] was 792 µM (≈ 256 µg/mL) and the MIC (VRE 342B) was 792 µM (≈ 256 µg/mL). The MIC (VRE 725B) was 792 µM (≈ 256 µg/mL), the MIC (VRE 368; vanA isolate, 24 h at 37 °C) was 792 µM (≈ 256 µg/mL) and the MIC (E. coli ATCC 25922) was 792 µM (≈ 256 µg/mL). It also gave an MIC [3] of 396 µM (≈ 128 µg/mL), an MIC ([4]; DSM 44162, 14 days at 37 °C) of 98.9 µM (≈ 32 µg/mL) and an MIC [5] of 396 µM (≈ 128 µg/mL). It also gave a CC50 at 24 h (Cytotoxicity assay (LDH)) greater than 30 µM.

In the case of `Cc1cc(C)cc(NC(=O)c2c(O)ccc3ccccc23)c1` [Compound 13, N-(3,5-Dimethylphenyl)-2-hydroxynaphthalene-1-carboxamide], the “log D6.5” value [1] is reported as 0.3429, the “log D7.4” value [1] is reported as 0.3480 and the “log k (logarithm of the capacity factor)” value [1] is reported as 0.3367. For the same compound, the MIC (S. aureus ATCC 29213) was 54.9 µM (≈ 16 µg/mL), the MIC (MRSA 63718; [7]) was 54.9 µM (≈ 16 µg/mL) and the MIC (MRSA SA 630; [7]) was 54.9 µM (≈ 16 µg/mL). For the same compound, the MIC (MRSA SA 3202) was 54.9 µM (≈ 16 µg/mL), the MIC [2, 6] was 879 µM (≈ 256 µg/mL) and the MIC (VRE 342B) was 879 µM (≈ 256 µg/mL). The MIC (VRE 725B) was 879 µM (≈ 256 µg/mL), the MIC (VRE 368; vanA isolate, 24 h at 37 °C) was 879 µM (≈ 256 µg/mL) and the MIC (E. coli ATCC 25922) was 879 µM (≈ 256 µg/mL). It also gave an MIC [3] of 439 µM (≈ 128 µg/mL), an MIC ([4]; DSM 44162, 14 days at 37 °C) of 110 µM (≈ 32 µg/mL) and an MIC ([5]; ATCC 700084, 3 days at 37 °C) of 220 µM (≈ 64.1 µg/mL). It also gave a CC50 at 24 h (Cytotoxicity assay (LDH)) greater than 30 µM.

In the case of `Cc1ccc(C(F)(F)F)cc1NC(=O)c1c(O)ccc2ccccc12` [Compound 22, 2-Hydroxy-N-[2-methyl-5-(trifluoromethyl)phenyl]naphthalene-1-carboxamide], the “log D6.5” value [1] is reported as 0.3444, the “log D7.4” value [1] is reported as 0.3440 and the MIC (S. aureus ATCC 29213) is reported as 2.9 µM (≈ 1 µg/mL). For the same compound, the MIC (MRSA 63718; [7]) was 5.79 µM (≈ 2 µg/mL), the MIC (MRSA SA 630; [7]) was 2.9 µM (≈ 1 µg/mL) and the MIC (MRSA SA 3202) was 2.9 µM (≈ 1 µg/mL). The MIC ([2]; ATCC29212, 24 h) was 46.3 µM (≈ 16 µg/mL), the MIC (VRE 342B) was 92.6 µM (≈ 32 µg/mL) and the MIC (VRE 725B) was 92.6 µM (≈ 32 µg/mL). It also gave an MIC (VRE 368; 24 h) of 46.3 µM (≈ 16 µg/mL), an MIC (E. coli ATCC 25922) of 23.2 µM (≈ 8.01 µg/mL) and an MIC [3] of 46.3 µM (≈ 16 µg/mL). The MIC [4] was 46.3 µM (≈ 16 µg/mL), the MIC ([5]; ATCC 700084, 3 days at 37 °C) was 23.2 µM (≈ 8.01 µg/mL) and the CC50 at 24 h (Cytotoxicity assay (LDH)) was greater than 30 µM.
